In patent EP0001940A1, “Derivatives of eburnamenine, their preparation and their therapeutical application” (SYNTHELABO, priority 1977, dated 1979) one finds ED (100% increase in survival time) data, which are given here for twelve molecules.

This experiment concerns souris de souche CDl. The experiment in a line: Hypobaric anoxia survival time test (Anoxie hypobare). The experiment is classed as in vivo. The following applies: Mus musculus, ip; mean active dose = dose increasing survival time by 100% vs controls, determined graphically; mice, i.p. before the test; 190 mm Hg (5,25% oxygen); read-out: Anoxie hypobare DAM - i.p. The source says: Des souris de souche CDl sont maintenues dans une atmosphère appauvrie en oxygène, par réalisation d'un vide partiel (190mm de mercure correspondant à 5,25% d'oxygène).
Le temps de survie des animaux est noté. Ce temps est augmenté par les agents capables de favoriser l'oxygénation tissulaire et en particulier cérébrale. Les composés étudiés sont administrés, à plusieurs doses, par voie intrapéritonéale, […] avant l'essai. Les pourcentages d'augmentation du temps de survie par rapport aux valeurs obtenues chez les animaux témoins sont calculés. La dose active moyenne (DAM), dose qui augmente le temps de survie de 100% est déterminée graphiquement
Les résultats sont indiqués dans le tableau II suivant pour un nombre représentatif de composés.
For the molecule `CCC12CCCN3CCc4c(n(c5cccc(Br)c45)C(C(=O)OC)C1)C32` (stereo not drawn) [compound 1, bromo-9 désoxyvincamine], the ED (100% increase in survival time) stood at 8 mg/kg. For `CCC12CCCN3CCc4c(n(c5ccc(Br)cc45)C(C(=O)OC)C1)C32` (stereo not drawn) [compound 2, bromo-10 désoxyvincamine] the value was 3 mg/kg. In the case of `CCOC(=O)C1CC2(CC)CCCN3CCc4c(n1c1cccc(Br)c41)C32` (stereo not drawn) [compound 3], the ED (100% increase in survival time) was found to be 8 mg/kg. Regarding `CCOC(=O)C1CC2(CC)CCCN3CCc4c(n1c1ccc(Br)cc41)C32` (stereo not drawn) [compound 4], the ED (100% increase in survival time) was 1 mg/kg. For `CCC12CCCN3CCc4c(n(c5ccc(Br)cc45)C(C(=O)OC(C)C)C1)C32` (stereo not drawn) [compound 5] the value was 3 mg/kg. The same measure for `CCC12CCCN3CCc4c(n(c5ccc(Br)cc45)C(C(N)=O)C1)C32` (stereo not drawn) [compound 6, Bromo-10 désoxyvincaminamide]: 1 mg/kg. Take `CCC12CCCN3CCc4c(n(c5ccc(Br)cc45)C(C(=O)NC)C1)C32` (stereo not drawn) [compound 7]: the ED (100% increase in survival time) was determined as 2 mg/kg. With `CCN(CC)C(=O)C1CC2(CC)CCCN3CCc4c(n1c1ccc(Br)cc41)C32` (stereo not drawn) [compound 8], the ED (100% increase in survival time) was 4 mg/kg. Turning to `CCC12CCCN3CCc4c(n(c5ccc(Br)cc45)C(C(=O)NC4CC4)C1)C32` (stereo not drawn) [compound 9], the ED (100% increase in survival time) was 0.5 to 1 mg/kg. The same measure for `CCCCOC(=O)C1(O)CC2(CC)CCCN3CCc4c(n1c1ccc(Br)cc41)C32` (stereo not drawn) [compound 13, bromo-10 vincaminate de n-butyle]: 3 to 4 mg/kg.

Regarding `CCOC(=O)C1(O)CC2(CC)CCCN3CCc4c(n1c1ccc(Br)cc41)C32` (stereo not drawn) [compound 14], the ED (100% increase in survival time) came out at 3 mg/kg. The same measure for `CCOC(=O)C1=CC2(CC)CCCN3CCc4c(n1c1ccc(Br)cc41)C32` (stereo not drawn) [compound 18]: 7 mg/kg.
